From PubChem BioAssay AID2060604 (Molecular Pharmacology Branch, DTP, NCI, 2025)
Values belong to the compound of their own block, whether it stands above or below them.

Tested on: 379773-124-R-J2-PDC complex spheroids, viability % test/control
Experiment: Anticancer human tumor 379773-124-R-J2-PDC patient-derived endometrial carcinoma cell line growth inhibition [CLK]
Conditions: for IC50: curve of first compound; for viability, T/C: stronger effect = lower value
Method in brief: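 Multi-cell-type spheroids combined patient-derived tumor cells with HUVEC endothelial cells and human mesenchymal stem cells. Paired agents were dosed in half-log steps down from about clinical Cmax, or from 10 microM where Cmax was unknown.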

[1] = second compound 0.0316 µM, first compound 0.0316 µM
[2] = second compound 0.0316 µM, first compound 0.1 µM
[3] = second compound 0.0316 µM, first compound 0.316 µM
[4] = second compound 0.0316 µM, first compound 1 µM
[5] = second compound 0.0316 µM, first compound 3.16 µM
[6] = second compound 0.0316 µM, first compound 10 µM
[7] = second compound 0.1 µM, first compound 0.0316 µM
[8] = second compound 0.1 µM, first compound 0.1 µM
[9] = second compound 0.1 µM, first compound 0.316 µM
[10] = second compound 0.1 µM, first compound 1 µM
[11] = second compound 0.1 µM, first compound 3.16 µM
[12] = second compound 0.1 µM, first compound 10 µM
[13] = second compound 0.316 µM, first compound 0.0316 µM
[14] = second compound 0.316 µM, first compound 0.1 µM
[15] = second compound 0.316 µM, first compound 0.316 µM
[16] = second compound 0.316 µM, first compound 1 µM
[17] = second compound 0.316 µM, first compound 3.16 µM
[18] = second compound 0.316 µM, first compound 10 µM
[19] = second compound 1 µM, first compound 0.0316 µM
[20] = second compound 1 µM, first compound 0.1 µM
[21] = second compound 1 µM, first compound 0.316 µM
[22] = second compound 1 µM, first compound 1 µM
[23] = second compound 1 µM, first compound 3.16 µM
[24] = second compound 1 µM, first compound 10 µM
[25] = second compound 3.16 µM, first compound 0.0316 µM
[26] = second compound 3.16 µM, first compound 0.1 µM
[27] = second compound 3.16 µM, first compound 0.316 µM
[28] = second compound 3.16 µM, first compound 1 µM
[29] = second compound 3.16 µM, first compound 3.16 µM
[30] = second compound 3.16 µM, first compound 10 µM
[31] = second compound 10 µM, first compound 0.0316 µM
[32] = second compound 10 µM, first compound 0.1 µM
[33] = second compound 10 µM, first compound 0.316 µM
[34] = second compound 10 µM, first compound 1 µM
[35] = second compound 10 µM, first compound 3.16 µM
[36] = second compound 10 µM, first compound 10 µM
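Note: compound exposure lasted seven days before the viability readout.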
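Throughout, for viability, T/C: 100% = DMSO vehicle control wells.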

IC50 (second compound 0.0316 µM): > 10000 nM
IC50 (second compound 0.1 µM): < 31.6 nM
IC50 (second compound 0.316 µM): < 31.6 nM
IC50 (second compound 1 µM): < 31.6 nM
IC50 (second compound 3.16 µM): < 31.6 nM
IC50 (second compound 10 µM): < 31.6 nM
SMILES: C=CC(=O)N1CCN(c2nc(=O)n(-c3c(C)ccnc3C(C)C)c3nc(-c4c(O)cccc4F)c(F)cc23)C(C)C1 (stereo unspecified) + CNC(=O)c1ccc(Nc2nc(OC3CCCC3)c3c(-c4ccc5nc(C)oc5c4)c[nH]c3n2)c(OC)c1
viability, T/C [1]: 74.3%
viability, T/C [2]: 80%
viability, T/C [3]: 76.1%
viability, T/C [4]: 76.5%
viability, T/C [5]: 76.5%
viability, T/C [6]: 71.3%
viability, T/C [7]: 34.9%
viability, T/C [8]: 46.9%
viability, T/C [9]: 42.7%
viability, T/C [10]: 39.2%
viability, T/C [11]: 36.6%
viability, T/C [12]: 38.3%
viability, T/C [13]: 43.6%
viability, T/C [14]: 33%
viability, T/C [15]: 41.9%
viability, T/C [16]: 41.6%
viability, T/C [17]: 37%
viability, T/C [18]: 38.5%
viability, T/C [19]: 34.6%
viability, T/C [20]: 33.1%
viability, T/C [21]: 45%
viability, T/C [22]: 34.5%
viability, T/C [23]: 32.6%
viability, T/C [24]: 28.4%
viability, T/C [25]: 31.1%
viability, T/C [26]: 34.5%
viability, T/C [27]: 34.9%
viability, T/C [28]: 28.1%
viability, T/C [29]: 29%
viability, T/C [30]: 27.7%
viability, T/C [31]: 27.8%
viability, T/C [32]: 33.1%
viability, T/C [33]: 29.2%
viability, T/C [34]: 28.2%
viability, T/C [35]: 40%
viability, T/C [36]: 18.4%

IC50 (second compound 0.0316 µM): 8070 nM
IC50 (second compound 0.1 µM): < 31.6 nM
IC50 (second compound 0.316 µM): < 31.6 nM
IC50 (second compound 1 µM): < 31.6 nM
IC50 (second compound 3.16 µM): < 31.6 nM
IC50 (second compound 10 µM): < 31.6 nM
SMILES: CCCS(=O)(=O)Nc1ccc(F)c(C(=O)c2c[nH]c3ncc(-c4ccc(Cl)cc4)cc23)c1F + CNC(=O)c1ccc(Nc2nc(OC3CCCC3)c3c(-c4ccc5nc(C)oc5c4)c[nH]c3n2)c(OC)c1
viability, T/C [1]: 74.1%
viability, T/C [2]: 81.7%
viability, T/C [3]: 82.3%
viability, T/C [4]: 91.5%
viability, T/C [5]: 72.3%
viability, T/C [6]: 44.9%
viability, T/C [7]: 42%
viability, T/C [8]: 39%
viability, T/C [9]: 34.4%
viability, T/C [10]: 41.1%
viability, T/C [11]: 38%
viability, T/C [12]: 17.4%
viability, T/C [13]: 39.5%
viability, T/C [14]: 30.1%
viability, T/C [15]: 39%
viability, T/C [16]: 38.6%
viability, T/C [17]: 39.8%
viability, T/C [18]: 22.2%
viability, T/C [19]: 38.7%
viability, T/C [20]: 35.2%
viability, T/C [21]: 31%
viability, T/C [22]: 31.6%
viability, T/C [23]: 35.8%
viability, T/C [24]: 19%
viability, T/C [25]: 35%
viability, T/C [26]: 36.7%
viability, T/C [27]: 35.7%
viability, T/C [28]: 32.3%
viability, T/C [29]: 32.4%
viability, T/C [30]: 18.2%
viability, T/C [31]: 33.5%
viability, T/C [32]: 27.9%
viability, T/C [33]: 29.6%
viability, T/C [34]: 39.1%
viability, T/C [35]: 40.4%
viability, T/C [36]: 13.2%

IC50 (second compound 0.0316 µM): 5290 nM
IC50 (second compound 0.1 µM): < 31.6 nM
IC50 (second compound 0.316 µM): < 31.6 nM
IC50 (second compound 1 µM): < 31.6 nM
IC50 (second compound 3.16 µM): < 31.6 nM
IC50 (second compound 10 µM): < 31.6 nM
SMILES: COC1C=CCC(C)C(C)S(=O)(=O)NC(=O)c2ccc3c(c2)N(CC2CCC21)CC1(CCCc2cc(Cl)ccc21)CO3 (stereo unspecified) + CNC(=O)c1ccc(Nc2nc(OC3CCCC3)c3c(-c4ccc5nc(C)oc5c4)c[nH]c3n2)c(OC)c1
viability, T/C [1]: 85.2%
viability, T/C [2]: 82.8%
viability, T/C [3]: 90.5%
viability, T/C [4]: 90%
viability, T/C [5]: 90%
viability, T/C [6]: 3.4%
viability, T/C [7]: 41.3%
viability, T/C [8]: 35.1%
viability, T/C [9]: 33.8%
viability, T/C [10]: 29.2%
viability, T/C [11]: 37%
viability, T/C [12]: 3.05%
viability, T/C [13]: 37.3%
viability, T/C [14]: 39.6%
viability, T/C [15]: 30.1%
viability, T/C [16]: 20.1%
viability, T/C [17]: 20.5%
viability, T/C [18]: 2.22%
viability, T/C [19]: 36.4%
viability, T/C [20]: 36.4%
viability, T/C [21]: 25.6%
viability, T/C [22]: 20.1%
viability, T/C [23]: 18.1%
viability, T/C [24]: 2.26%
viability, T/C [25]: 31.5%
viability, T/C [26]: 33.8%
viability, T/C [27]: 23.3%
viability, T/C [28]: 18.4%
viability, T/C [29]: 13%
viability, T/C [30]: 1.56%
viability, T/C [31]: 35.1%
viability, T/C [32]: 42.5%
viability, T/C [33]: 30.4%
viability, T/C [34]: 21.6%
viability, T/C [35]: 11.7%
viability, T/C [36]: 1.66%
